In patent US11685732B2, “MYST family histone acetyltransferase inhibitors” (Epizyme, Inc., priority 2017, dated 2023):

Legend:
KAT-6A = KAT-6A (Homo sapiens (Human), UniProt Q92794); assay: KAT-6A biochemical inhibition assay (SAMDI mass spectrometry)
Method in brief: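 Enzyme (12.5 nM final) pre-incubated with serially diluted compounds (2% DMSO final) in 50 mM Tris pH 8.0 with Tween20, gelatin and 1 mM DTT. Reaction started with 1 μM peptide substrate and 1 μM acetyl-CoA, run 90 min at 25 °C, quenched with 0.5% formic acid, read by SAMDI-TOF mass spectrometry; IC50 derived.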

KAT-8 = KAT-8 (Homo sapiens (Human), UniProt Q9H7Z6); assay: KAT-8 biochemical inhibition assay (SAMDI mass spectrometry)
Sequence of KAT-8 (Q9H7Z6 other isoform, or with tags, fused parts or gaps): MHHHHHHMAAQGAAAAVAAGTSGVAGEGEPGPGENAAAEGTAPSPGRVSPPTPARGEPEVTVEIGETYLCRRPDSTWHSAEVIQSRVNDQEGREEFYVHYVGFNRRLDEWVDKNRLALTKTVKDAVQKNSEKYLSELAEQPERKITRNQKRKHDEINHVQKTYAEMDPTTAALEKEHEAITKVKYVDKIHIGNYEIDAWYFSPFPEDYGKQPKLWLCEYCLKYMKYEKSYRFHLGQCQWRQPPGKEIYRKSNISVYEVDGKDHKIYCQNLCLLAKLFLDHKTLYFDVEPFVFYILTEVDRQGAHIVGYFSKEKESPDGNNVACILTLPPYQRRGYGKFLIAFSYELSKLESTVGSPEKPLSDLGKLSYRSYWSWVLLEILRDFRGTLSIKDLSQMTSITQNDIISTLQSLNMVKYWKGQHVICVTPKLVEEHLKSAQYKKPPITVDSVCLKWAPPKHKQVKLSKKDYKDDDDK
Method in brief: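 Compounds in 2% DMSO pre-incubated with 12.5 nM enzyme in 50 mM Tris pH 8.0 with Tween20, gelatin and 1 mM DTT. Then 1 μM peptide and 5 μM acetyl-CoA were added, 90 min at 25 °C; formic acid stop and SAMDI-TOF mass spectrometry for IC50.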

KAT-7 = KAT-7 (Homo sapiens (Human), UniProt O95251); assay: KAT-7 biochemical inhibition assay (SAMDI mass spectrometry)
Sequence of KAT-7 (O95251 other isoform, or with tags, fused parts or gaps): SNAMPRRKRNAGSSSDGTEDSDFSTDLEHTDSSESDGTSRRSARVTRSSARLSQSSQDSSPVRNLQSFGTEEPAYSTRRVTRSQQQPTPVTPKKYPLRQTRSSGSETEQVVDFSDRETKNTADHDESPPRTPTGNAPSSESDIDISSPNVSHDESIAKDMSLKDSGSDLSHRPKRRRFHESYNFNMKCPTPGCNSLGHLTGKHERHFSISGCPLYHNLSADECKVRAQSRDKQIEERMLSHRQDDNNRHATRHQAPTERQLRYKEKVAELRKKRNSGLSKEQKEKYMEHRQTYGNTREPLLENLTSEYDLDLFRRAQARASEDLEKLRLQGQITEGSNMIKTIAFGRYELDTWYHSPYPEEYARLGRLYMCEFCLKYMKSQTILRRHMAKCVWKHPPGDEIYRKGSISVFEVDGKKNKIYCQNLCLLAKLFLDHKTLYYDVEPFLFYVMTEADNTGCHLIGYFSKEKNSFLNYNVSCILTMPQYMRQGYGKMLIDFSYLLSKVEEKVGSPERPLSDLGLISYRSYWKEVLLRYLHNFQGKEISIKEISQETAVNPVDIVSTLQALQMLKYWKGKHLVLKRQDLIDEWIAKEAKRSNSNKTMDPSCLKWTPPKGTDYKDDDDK
Method in brief: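 KAT-7 (6 nM) was pre-incubated with serially diluted compound (2% DMSO) in Tris pH 8.0 with DTT. Reaction with 1 μM peptide and 2 μM acetyl-CoA ran 120 min at 25 °C and was stopped with 0.5% formic acid. Acetylation was read by SAMDI-TOF mass spectrometry to give IC50.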

KAT-5 = KAT-5 (Homo sapiens (Human), UniProt Q92993); assay: KAT-5 biochemical inhibition assay (SAMDI mass spectrometry)
Sequence of KAT-5 (Q92993 other isoform, or with tags, fused parts or gaps): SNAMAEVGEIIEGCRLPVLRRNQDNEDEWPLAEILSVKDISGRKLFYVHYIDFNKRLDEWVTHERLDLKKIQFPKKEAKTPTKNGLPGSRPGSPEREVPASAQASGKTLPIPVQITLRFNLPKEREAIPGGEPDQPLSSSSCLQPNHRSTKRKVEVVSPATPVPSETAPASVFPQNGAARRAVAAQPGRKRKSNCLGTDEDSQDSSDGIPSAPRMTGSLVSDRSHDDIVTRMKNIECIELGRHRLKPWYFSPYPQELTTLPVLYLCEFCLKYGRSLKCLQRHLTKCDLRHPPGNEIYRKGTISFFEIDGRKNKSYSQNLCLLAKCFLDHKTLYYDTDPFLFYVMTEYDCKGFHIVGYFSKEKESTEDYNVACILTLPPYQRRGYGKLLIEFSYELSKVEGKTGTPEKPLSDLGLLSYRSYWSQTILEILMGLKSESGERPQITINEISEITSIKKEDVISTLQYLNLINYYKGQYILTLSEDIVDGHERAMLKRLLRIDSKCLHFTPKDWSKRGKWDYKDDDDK
Method in brief: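 KAT-5 at 9 nM final was preincubated with serially diluted compound (2% DMSO) in 50 mM Tris pH 8.0 with 1 mM DTT. Reaction ran with 1 μM peptide substrate and 0.5 μM acetyl-CoA for 90 min at 25° C, was quenched with 0.5% formic acid, and was read by SAMDI-TOF mass spectrometry.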

Sequence of KAT-6A (Q92794 other isoform, or with tags, fused parts or gaps): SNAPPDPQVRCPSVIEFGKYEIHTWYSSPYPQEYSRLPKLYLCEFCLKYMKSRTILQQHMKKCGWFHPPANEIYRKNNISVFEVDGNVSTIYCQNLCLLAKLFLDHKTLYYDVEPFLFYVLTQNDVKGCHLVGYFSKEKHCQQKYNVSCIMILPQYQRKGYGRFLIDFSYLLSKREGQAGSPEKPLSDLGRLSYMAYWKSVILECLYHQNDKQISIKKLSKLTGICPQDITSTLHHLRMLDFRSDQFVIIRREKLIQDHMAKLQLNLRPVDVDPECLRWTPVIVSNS

Row | SMILES | IC50 (KAT-6A) [µM] | IC50 (KAT-8) [µM] | IC50 (KAT-7) [µM] | IC50 (KAT-5) [µM]
1 | CNC(=O)N1CC[C@H](CS(=O)(=O)NNC(=O)c2cc(-c3cn(C)cn3)cc(Cl)c2F)C1 [Compound I-210] | 10 to 50 | 10 to 50 | < 10 | < 10
2 | Cn1cnc(-c2cc(Cl)c(F)c(C(=O)NNS(=O)(=O)C[C@H]3CC[C@H](NS(C)(=O)=O)CC3)c2)c1 [Compound I-211] | < 10 | 10 to 50 | < 10 | < 10
3 | COCCn1cc(S(=O)(=O)NNC(=O)c2cc(-c3cn(C)cn3)cc(Cl)c2F)cn1 [Compound I-212] | 10 to 50 | 10 to 50 | < 10 | 10 to 50
4 | COc1ccc(CNC(=O)N[C@H]2C[C@@H](CS(=O)(=O)NNC(=O)c3cc(-c4cn(C)cn4)cc(Cl)c3F)C2)cc1 [Compound I-213] | < 10 | 10 to 50 | < 10 | < 10
5 | COc1ccc(CNC(=O)N2CCCC(CS(=O)(=O)NNC(=O)c3cc(-c4cn(C)cn4)cc(Cl)c3F)C2)cc1 (centres unmarked) [Compound I-214] | < 10 | 10 to 50 | < 10 | < 10
6 | Cn1cnc(-c2cc(Cl)c(F)c(C(=O)NNS(=O)(=O)CC3CCCN(C(N)=O)C3)c2)c1 (centres unmarked) [Compound I-215] | < 10 | 10 to 50 | < 10 | < 10
7 | COCCN(Cc1ccc(OC)cc1)C(=O)N1CCCC(CS(=O)(=O)NNC(=O)c2cc(-c3cn(C)cn3)cc(Cl)c2F)C1 (centres unmarked) [Compound I-216] | 10 to 50 | 10 to 50 | < 10 | < 10
8 | COCCNC(=O)N1CCCC(CS(=O)(=O)NNC(=O)c2cc(-c3cn(C)cn3)cc(Cl)c2F)C1 (centres unmarked) [Compound I-217] | < 10 | 10 to 50 | < 10 | < 10
9 | Cn1cnc(-c2cc(Cl)c(F)c(C(=O)NNS(=O)(=O)CC3CCCC(NC(=O)C4CCC4)C3)c2)c1 (centres unmarked) [Compound I-218] | < 10 | 10 to 50 | < 10 | < 10
10 | O=C(NNS(=O)(=O)CC1CCCCC1)c1cc(-c2cn(Cc3ncco3)cn2)cc(Cl)c1F [Compound I-219] | < 10 | 10 to 50 | < 10 | < 10
11 | Cn1cnc(-c2cc(Cl)c(F)c(C(=O)NNS(=O)(=O)CC3CN(S(C)(=O)=O)C3)c2)c1 [Compound I-220] | 10 to 50 | 10 to 50 | < 10 | 10 to 50
12 | CCC(=O)N[C@H]1CC[C@@H](CS(=O)(=O)NNC(=O)c2cc(-c3cn(C)cn3)cc(Cl)c2F)CC1 [Compound I-221] | < 10 | 10 to 50 | < 10 | < 10
13 | CC(C)C(=O)N[C@H]1CC[C@@H](CS(=O)(=O)NNC(=O)c2cc(-c3cn(C)cn3)cc(Cl)c2F)CC1 [Compound I-222] | 10 to 50 | 10 to 50 | < 10 | < 10
14 | CN1CC(CS(=O)(=O)NNC(=O)c2cc(-c3cn(C)cn3)cc(Cl)c2F)CC1=O (centres unmarked) [Compound I-224] | 10 to 50 | 10 to 50 | < 10 | 10 to 50
15 | Cn1cnc(-c2cc(Cl)c(F)c(C(=O)NNS(=O)(=O)CC3CCCN(C(=O)NCCO)C3)c2)c1 (centres unmarked) [Compound I-225] | < 10 | 10 to 50 | < 10 | < 10
16 | COCc1nc(-c2cc(Cl)c(F)c(C(=O)NNS(=O)(=O)CC3CCCCC3)c2)cn1C [Compound I-226] | 10 to 50 | 10 to 50 | < 10 | < 10
17 | Cn1cnc(-c2cc(Cl)c(F)c(C(=O)NNS(=O)(=O)c3nccs3)c2)c1 [Compound I-227] | < 10 | 10 to 50 | < 10 | < 10
18 | Cn1cnc(-c2cc(Cl)c(F)c(C(=O)NNS(=O)(=O)CC3CCN(C(=O)NCCO)C3)c2)c1 (centres unmarked) [Compound I-228] | 10 to 50 | 10 to 50 | < 10 | < 10
19 | Cn1cnc(-c2cc(Cl)c(F)c(C(=O)NNS(=O)(=O)C[C@H]3CC[C@H](NC(=O)Cc4ccccc4)CC3)c2)c1 [Compound I-229] | < 10 | 10 to 50 | < 10 | < 10
20 | Cn1cnc(-c2cc(Cl)c(F)c(C(=O)NNS(=O)(=O)CC3CCCC(NC(=O)c4ccccc4)C3)c2)c1 (centres unmarked) [Compound I-230] | < 10 | 10 to 50 | < 10 | < 10
